Data as given in patent US10039781B2, “Pulse inhalation of nitric oxide for treating respiratory diseases” (Advanced Inhalation Therapies (AIT) Ltd., priority 2015, dated 2018).
Where two headings read alike, the source gives them in different places.

Key:
[1] = healthy humans, cited from earlier work
[2] = rats, cited from earlier work
[3] = test system: microorganisms; assay: In vitro exposure to 200 ppm gNO, average over all microorganisms of Table 1; assay type: cell-based; settings: average of the 15 microorganisms
Description: In vitro studies of the antimicrobial and antiviral effect of gNO have shown that the viability and vitality of viruses, bacteria and fungi decreases to a point of substantial eradication after the pathogen has been exposed to a certain amount of nitric oxide over a certain period of time. This amount, which can be referred to as the effective amount, can be estimated in terms of the concentration of NO in the gas mixture contacted with the pathogen, times the duration of the exposure. For example, the effective amount can be estimated in units of ppm-time-hour, or ppm-hour. Table 1 presents experimental data gathered for microorganisms exposed to 200 ppm gNO until the microorganisms are substantially eradicated*.

[4] = test system: MRSA; settings: 200 ppm gNO until substantially eradicated; cited from earlier work
[5] = test system: Enterobacter sp.; settings: 200 ppm gNO until substantially eradicated; cited from earlier work
[6] = test system: five planktonic species of methicillin resistant S. aureous (MRSA); settings: exposure to 1,600 ppm hours of gNO; cited from earlier work
[7] = test system: Mycobacterium smegmatis; settings: 200 ppm gNO until substantially eradicated; cited from earlier work
[8] = test system: Klebsiella sp. #3; settings: 200 ppm gNO until substantially eradicated; cited from earlier work
[9] = cited from earlier work
[10] = test system: bovine respiratory disease; settings: intermittent 30 minute exposures of gNO, cattle; cited from earlier work
[11] = Prospective phase I open label safety study of inhaled 160 ppm gNO in healthy adults; assay type: in vivo, human; settings: 160 ppm gNO for 30 minutes, five times a day
[12] = test system: Serracia sp.; settings: 200 ppm gNO until substantially eradicated; cited from earlier work
[13] = test system: Candida albicans; settings: 200 ppm gNO until substantially eradicated; cited from earlier work
[14] = test system: Klebsiella sp.#2; settings: 200 ppm gNO until substantially eradicated; cited from earlier work
[15] = test system: Pseudomonas aeruginosa pneumonia; settings: 160 ppm gNO, intermittent 30 minute exposures, rat; cited from earlier work
[16] = test system: E. coli; settings: 200 ppm gNO until substantially eradicated; cited from earlier work
[17] = test system: S. aureus (Clinical); settings: 200 ppm gNO until substantially eradicated; cited from earlier work
[18] = test system: S. maltophilia; settings: 200 ppm gNO until substantially eradicated; cited from earlier work
[19] = test system: S. aureus (ATCC); settings: 200 ppm gNO until substantially eradicated; cited from earlier work
[20] = test system: chronic, non-healing wound; settings: topical 200 ppm gNO, cited from earlier work
[21] = test system: Acinetobader sp.; settings: 200 ppm gNO until substantially eradicated; cited from earlier work
[22] = test system: Group B Streptococci; settings: 200 ppm gNO until substantially eradicated; cited from earlier work
[23] = rats, gNO concentrations below 200 ppm, 6 hours/day for 28 days; cited from earlier work
[24] = test system: MRSA biofilm; settings: 200 ppm gNO for eight hours (1,600 ppm hours); cited from earlier work
[25] = test system: Klebsiella sp. #1; settings: 200 ppm gNO until substantially eradicated; cited from earlier work
[26] = test system: P. aeruginosa (ATCC); settings: 200 ppm gNO until substantially eradicated; cited from earlier work
[27] = 400 ppm gNO, first day of exposure
[28] = 500 ppm gNO, first day of exposure
[29] = five consecutive days, healthy adults

Q: Which “levels of MetHb” value ([1]; inhalation of gNO at 128 ppm for 3 hours) does the source give for `[N]=O` [gNO, nitric oxide] here?
A: The value was > 5%.

Q: And the “levels of MetHb” value ([1]; inhalation of gNO at 512 ppm for 55 minutes)?
A: Its value is > 5%.

Q: What about the mortality ([2]; 300 ppm gNO, groups of 10 rats) of the same compound?
A: Its mortality is “Six of the animals treated with 300 ppm gNO died during the first 1-2 days”.

Q: And the MetHb levels [2, 27]?
A: Its MetHb levels is 72.5 percents.

Q: And the mortality [2, 27]?
A: The mortality was “all of the animals died”.

Q: And the MetHb levels [2, 28]?
A: Its MetHb levels is 67 percents.

Q: And the mortality [2, 28]?
A: Its mortality is “all of the animals died”.

Q: What about the “Effective amount in ppm-hour, Average” value [3] of the same compound?
A: The value was 1013.33 ppm-hour.

Q: What about the “Effective amount in ppm-hour” value [4] of the same compound?
A: Its value is 1000 ppm-hour.

Q: And the “Effective amount in ppm-hour” value [5]?
A: Its value is 1200 ppm-hour.

Q: What about the “population of MRSA planktonic strains” value [6] of the same compound?
A: Its value is “A reduction in the population of all five MRSA planktonic strains was observed”.

Q: And the “Effective amount in ppm-hour” value [7]?
A: The value was 2000 ppm-hour.

Q: And the “Effective amount in ppm-hour” value [8]?
A: Its value is 1200 ppm-hour.

Q: What about the “half-life in the body” value ([9]; in vivo) of the same compound?
A: Its value is “less than 6 seconds”.

Q: What about the “radius of action from its site of origin” value ([9]; in vivo) of the same compound?
A: The value was “approximately 200 microns”.

Q: What about the “nitrate excreted in the urine, share of the nitric oxide dose inhaled” value ([9]; predominant metabolite nitrate) of the same compound?
A: Its value is “more than 70%”.

Q: And the “clinical symptoms of bovine respiratory disease” value [10]?
A: The value was “shown to decrease the clinical symptoms”.

Q: And the “Forced expiratory volume in 1 sec (FEV1) percentage and other lung function parameters” value [11, 29]?
A: The value was “improved”.

Q: And the adverse events [11, 29]?
A: The adverse events was “neither significant adverse events nor adverse events attributable to gNO inhalation occurred”.

Q: And the methemoglobin levels [11, 29]?
A: The methemoglobin levels was 0.9%.

Q: And the tolerability [11, 29]?
A: Its tolerability is “all individuals tolerated the gNO treatment courses well”.

Q: What about the “serum nitrites/nitrates, prothrombin, pro-inflammatory cytokine and chemokine levels” value ([11]; baseline versus day 5) of the same compound?
A: The value was “did not differ between baseline and day 5”.

Q: What about the “Effective amount in ppm-hour” value [12] of the same compound?
A: Its value is 1200 ppm-hour.

Q: What about the “Effective amount in ppm-hour” value [13] of the same compound?
A: Its value is 800 ppm-hour.

Q: And the “Effective amount in ppm-hour” value [14]?
A: Its value is 1000 ppm-hour.

Q: And the “pulmonary bioburden and leukocyte infiltration” value [15]?
A: Its value is “effective to reduce the pulmonary bioburden and leukocyte infiltration”.

Q: And the “Effective amount in ppm-hour” value [16]?
A: The value was 1000 ppm-hour.

Q: And the “Effective amount in ppm-hour” value [17]?
A: The value was 800 ppm-hour.

Q: And the “Effective amount in ppm-hour” value [18]?
A: Its value is 800 ppm-hour.

Q: And the “Effective amount in ppm-hour” value [19]?
A: Its value is 800 ppm-hour.

Q: What about the wound size reduction ([20]; at one week) of the same compound?
A: The wound size reduction was 42%.

Q: What about the presence of biofilm ([20]; within the first three days of treatment) of the same compound?
A: The presence of biofilm was “no longer visibly present”.

Q: What about the “Effective amount in ppm-hour” value [21] of the same compound?
A: The value was 1200 ppm-hour.

Q: What about the “Effective amount in ppm-hour” value [22] of the same compound?
A: Its value is 400 ppm-hour.

Q: And the mortality [23]?
A: The mortality was “No deaths occurred”.

Q: What about the MRSA in biofilm [24] of the same compound?
A: Its MRSA in biofilm is “shown to reduce MRSA”.

Q: And the “Effective amount in ppm-hour” value [25]?
A: The value was 1200 ppm-hour.

Q: What about the “Effective amount in ppm-hour” value [26] of the same compound?
A: The value was 600 ppm-hour.
